Assay results published in US10781224B2, “Bis(oxymethyl)phosphinic acid and biogenic metal salts thereof as regulators of plant growth and development” (priority 2016, dated 2020).

Assays:
Format in all cases: in vivo
[1] = system: spring wheat seeds: contamination by mold, alternaria, bacteriosis; assay: Phytopathological properties (seed contamination) of treated spring wheat seeds
Method: (§1) Experimental versions—soaking seeds in BHMPA solutions and solutions of BHMPA Ca, Mg, Na, Co, Mn, Cu, and Zn salts at 1·10^−6-1·10^−12% concentrations (doses). The studies were conducted in laboratory in Petri dishes; seed bed—two layers of filter paper. 50 seeds soaked in water (control) and in the solutions of the tested compounds (experimental) were placed into each dish. Wheat, corn, and rice seeds were exposed for one hour.
(§2) Analysis was conducted according to the government standards GOST 12038-84 “Crop seeds. Technical conditions for determining the germination energy and germination rate”, GOST 12044-93 “Crop seeds. Methods for determining disease contamination.”
(§3) The study of the effect of pre-sowing seed treatment with BHMPA was conducted on winter wheat (Kazan-500 variety) and spring wheat (Ekada-66 variety).
The effect of the treatment with BHMPA on phytopathological properties of spring wheat seeds was examined and the results are presented in Table II. […] The biological activity in this case was 64.4%. In other samples, contamination of the seeds also remained lower than that of the control. Treatment of seeds with BHMPA solutions reduced their overall contamination.

[2] = system: winter wheat (Kazan-500 variety); assay: Winter wheat seed treatment with BHMPA: germination energy, germination rate, plant height, roots
Method: (§4) Control—Soaking Seeds in Water;
as §1, §2
(§5) Seed germination energy and rate were calculated in percent as an arithmetic mean of the four experimental results (germination energy on the 4th day, wheat germination on the 8th day, rice and corn germination—on the 7th day). Germination was determined based on the germinating power indicators (length of the roots and sprouts and their wet and dry mass per 100 shoots).
as §3

[3] = system: spring wheat (Ekada-66 variety); assay: Spring wheat seed treatment: germination rate and plant height (laboratory, Petri dishes); conditions: for Germination rate % 4th day / Germination rate % 8th day / Plant height: spring wheat
Method: as §4, §1, §2, §5, §3

[4] = system: winter wheat (Kazan 560 variety); assay: Field study: winter wheat seed treatment and spraying, yield and quality of the grain; conditions: for Field germination, % / Grain mass from the main ear / Number of grains in an ear / Viability, % / Yield, dt/ha: winter wheat
Method: Field studies were conducted for the BHMPA Mg-salt. The effect of treatment winter wheat seeds (Kazan 560 variety) with BHMPA Mg-salt solutions on the yield and quality of the grain was examined. The field experiment was conducted at a branch of a fallow rotation. The seeds were sowed on Sep. 1, 2015, in an area covering 1.7 hectares of the experimental field located at the experimental base of Tatarstan Research Institute of Agriculture. For comparison, the seeds were treated with the BHMPA Mg-salt solution and the known growth-regulator Melaphen at the same concentrations, optimum for Melaphen.
The experiment was conducted for the following variants: • 1. Control (no seed treatment); • 2. Seed treatment with the BHMPA Mg-salt solution at a 1·10^−7% concentration; • 3. Seed treatment with the BHMPA Mg-salt solution at a 1·10^−7% concentration+spraying with the BHMPA Mg-salt solution at a 1·10^−8% concentration upon vegetation during spring tillering and earing phases; • 4. Seed treatment with the growth regulator Melaphen at a 1·10^−7% concentration; • 5. Seed treatment with Melaphen at a 1·10^−7% concentration and spraying with Melaphen at a 1·10^−8% concentration upon vegetation during spring tillering and earing phases.
The seeds were treated with the experimental compounds together with a seed disinfectant at a rate of 10 ml/T. The vegetating plants were treated at a rate of 5 ml/ha. Identical field operations appropriate for that zone as well as plant protection measures against weeds and disease, were applied in all cases.
Results of field experiments with BHMPA Mg-salt as the main growth-regulating component of said pre-sowing seed treatment combined with additional treatment of winter wheat plants with other claimed BHMPA salts, are presented in Table XXXV.

rice (Diamant variety) [5] = assay: Rice seed treatment with BHMPA salts: germinating power; conditions: rice seed treatment, comparison with Melaphen (Table XXXIII), solution 1 · 10^−8%
Method: as §1, §5
(§6) The effect of pre-sowing seed treatment with the claimed BHMPA salts of biogenic metals was studied on winter wheat (Vershin variety), corn (Krasnodar 385 MV variety), and rice (Diamant variety).
(§7) The above data describe the seed viability only at the initial stage of germination, while the germination ability at the later stage of germination is defined by the initial germinating power. The method for the determination of the germinating power comprises measuring the height of the sprouts and primary roots, as well as the biomass and the dry mass thereof per 100 seedlings. [M. A. Kartuzova. Initial Germinating Power as Method of Biological Assessment of Seed Quality. Selection and Seed Farming, #2, 1953].

[6] = system: corn (Krasnodar 385 MV variety); assay: Corn seed treatment with BHMPA salts: germinating power; conditions: corn seeds; solution concentration 1 · 10^−7%
Method: as §1, §5, §6, §7

[7] = system: winter wheat (Vershin variety); assay: Winter wheat seed treatment with BHMPA salts: germinating power (length and mass of roots and sprouts); conditions: comparative study, 1·10^−7% solution
Method: as §1, §5, §6, §7

rice (Diamant variety) [8] = assay: Rice seed treatment with BHMPA salts: germination energy and germination rate
Method: as §4, §1, §2, §5, §6

[9] = system: corn (Krasnodar 385 MV variety); assay: Corn seed treatment with BHMPA salts: germination energy and germination rate; conditions: comparative study vs Melaphen, 1·10^−7% solution
Method: as §4, §1, §2, §5, §6

[10] = system: winter wheat (Vershin variety); assay: Winter wheat seed treatment with BHMPA salts: germination energy and germination rate; conditions: winter wheat; comparative study vs Melaphen; 1·10^−7% solution
Method: as §4, §1, §2, §5, §6

[11] = seed treatment 1 · 10^−7% + spraying plants with the same substance 1 · 10^−8%
[12] = rice seed treatment, solution 1 · 10^−8%
[13] = rice, comparative study vs Melaphen, 1·10^−8% solution

O=P(O)(CO)CO [BHMPA, bis-(hydroxymethyl)-phosphinic acid]
Biological efficacy ([1]; 1·10^−7% solution): 44.1%
Contamination by type: alternaria ([1]; 1·10^−7% solution): 24%
Contamination by type: bacteriosis ([1]; 1·10^−7% solution): 6%
Contamination by type: mold ([1]; 1·10^−7% solution): 3%
Overall contamination ([1]; 1·10^−7% solution): 33.0%
Biological efficacy ([1]; 1·10^−8% solution): 42.4%
Contamination by type: alternaria ([1]; 1·10^−8% solution): 26%
Contamination by type: bacteriosis ([1]; 1·10^−8% solution): 6%
Contamination by type: mold ([1]; 1·10^−8% solution): 2%
Overall contamination ([1]; 1·10^−8% solution): 34.0%
Biological efficacy ([1]; 1·10^−9% solution): 64.4%
Contamination by type: alternaria ([1]; 1·10^−9% solution): 14%
Contamination by type: bacteriosis ([1]; 1·10^−9% solution): 4%
Contamination by type: mold ([1]; 1·10^−9% solution): 3%
Overall contamination ([1]; 1·10^−9% solution): 21.5%
overall seed contamination lower than that of the control by ([1]; 1·10^−9% solution, control 59%): 38%
Overall contamination ([1]; 1·10^−9% solution, listed as bis-(hydroxymethyl)-phosphinic acid): 21.0%
Biological efficacy ([1]; 1·10^−10% solution): 61.0%
Contamination by type: alternaria ([1]; 1·10^−10% solution): 16%
Contamination by type: bacteriosis ([1]; 1·10^−10% solution): 4%
Contamination by type: mold ([1]; 1·10^−10% solution): 3%
Overall contamination ([1]; 1·10^−10% solution): 23.0%
Biological efficacy ([1]; 1·10^−11% solution): 22.0%
Contamination by type: alternaria ([1]; 1·10^−11% solution): 42%
Contamination by type: bacteriosis ([1]; 1·10^−11% solution): 2%
Contamination by type: mold ([1]; 1·10^−11% solution): 2%
Overall contamination ([1]; 1·10^−11% solution): 46.0%
Biological efficacy ([1]; 1·10^−12% solution): 44.1%
Contamination by type: alternaria ([1]; 1·10^−12% solution): 28%
Contamination by type: bacteriosis ([1]; 1·10^−12% solution): 3%
Contamination by type: mold ([1]; 1·10^−12% solution): 2%
Overall contamination ([1]; 1·10^−12% solution): 33.0%
Germination energy ([2]; 1·10^−7% solution): 82.5%
Germination rate ([2]; 1·10^−7% solution): 84.0%
Number of roots ([2]; 1·10^−7% solution): 3.3
Plant height ([2]; 1·10^−7% solution): 11.3 cm
Root length ([2]; 1·10^−7% solution): 11.7 cm
Germination energy ([2]; 1·10^−8% solution): 86.0%
Germination rate ([2]; 1·10^−8% solution): 86.0%
Number of roots ([2]; 1·10^−8% solution): 3.1
Plant height ([2]; 1·10^−8% solution): 12.5 cm
Root length ([2]; 1·10^−8% solution): 12.1 cm
Germination energy ([2]; 1·10^−9% solution): 87.4%
Germination rate ([2]; 1·10^−9% solution): 96.0%
Number of roots ([2]; 1·10^−9% solution): 3.4
Plant height ([2]; 1·10^−9% solution): 13.6 cm
Root length ([2]; 1·10^−9% solution): 12.3 cm
Germination energy ([2]; 1·10^−10% solution): 85.7%
Germination rate ([2]; 1·10^−10% solution): 90.0%
Number of roots ([2]; 1·10^−10% solution): 3.2
Plant height ([2]; 1·10^−10% solution): 11.2 cm
Root length ([2]; 1·10^−10% solution): 11.5 cm
Germination energy ([2]; 1·10^−11% solution): 83.9%
Germination rate ([2]; 1·10^−11% solution): 92.0%
Number of roots ([2]; 1·10^−11% solution): 3.3
Plant height ([2]; 1·10^−11% solution): 12.4 cm
Root length ([2]; 1·10^−11% solution): 11.3 cm
Germination energy ([2]; 1·10^−12% solution): 90.0%
Germination rate ([2]; 1·10^−12% solution): 95.0%
Number of roots ([2]; 1·10^−12% solution): 3.3
Plant height ([2]; 1·10^−12% solution): 14.1 cm
Root length ([2]; 1·10^−12% solution): 11.9 cm
Germination rate % 4th day ([3]; 1·10^−7% solution): 28.0%
Germination rate % 8th day ([3]; 1·10^−7% solution): 70.0%
Plant height ([3]; 1·10^−7% solution): 14.1 cm
Germination rate % 4th day ([3]; 1·10^−9% solution): 33.0%
Germination rate % 8th day ([3]; 1·10^−9% solution): 81.5%
Plant height ([3]; 1·10^−9% solution): 14.3 cm
Germination rate % 4th day ([3]; 1·10^−12% solution): 32.5%
Germination rate % 8th day ([3]; 1·10^−12% solution): 81.3%
Plant height ([3]; 1·10^−12% solution): 14.4 cm
growth-regulating ability compared with Melaphen ([3]; wheat, Tables I-III, 1·10^−9%, 1·10^−11% and 1·10^−12%): lesser impact than that of the prototype Melaphen

Nc1nc(N)nc(N)n1.O=P(O)(CO)CO [Melaphen, melamine salt of BHMPA, reference compound]
yield of winter wheat ([4]; field, seeds treated at 1·10^−7% and plants sprayed with 1·10^−8%, control 21.7 dt/ha): 29.3 dt/ha
Field germination, % ([4]; seed treatment 1 · 10^−7%): 71%
Grain mass from the main ear ([4]; seed treatment 1 · 10^−7%): 1.0 g
Number of grains in an ear ([4]; seed treatment 1 · 10^−7%): 27
Viability, % ([4]; seed treatment 1 · 10^−7%): 74%
Yield, dt/ha ([4]; seed treatment 1 · 10^−7%): 28.0 dt/ha
Field germination, % [4, 11]: 71%
Grain mass from the main ear [4, 11]: 1.2 g
Number of grains in an ear [4, 11]: 30
Viability, % [4, 11]: 62%
Yield, dt/ha [4, 11]: 29.3 dt/ha
Length, root (rice (Diamant variety) [5]): 7.6 cm
Length, root, + % to control (rice (Diamant variety) [5]): 58%
Length, sprout (rice (Diamant variety) [5]): 4.9 cm
Length, sprout, + % to control (rice (Diamant variety) [5]): 88%
Mass, dry, root (rice (Diamant variety) [5]): 0.29 g/100 plantlings
Mass, dry, root, + % to control (rice (Diamant variety) [5]): 38%
Mass, dry, sprout (rice (Diamant variety) [5]): 0.35 g/100 plantlings
Mass, dry, sprout, + % to control (rice (Diamant variety) [5]): 40%
Mass, wet, root (rice (Diamant variety) [5]): 1.57 g/100 plantlings
Mass, wet, root, + % to control (rice (Diamant variety) [5]): 60%
Mass, wet, sprout (rice (Diamant variety) [5]): 2.62 g/100 plantlings
Mass, wet, sprout, + % to control (rice (Diamant variety) [5]): 73.5%
Length, root [6]: 8.4 cm
Length, root, + % to control [6]: 42%
Length, sprout [6]: 4.3 cm
Length, sprout, + % to control [6]: 59%
Mass, dry, root [6]: 2.42 g/100 plantlings
Mass, dry, root, + % to control [6]: 37.5%
Mass, dry, sprout [6]: 1.86 g/100 plantlings
Mass, dry, sprout, + % to control [6]: 37%
Mass, wet, root [6]: 12.02 g/100 plantlings
Mass, wet, root, + % to control [6]: 37%
Mass, wet, sprout [6]: 10.23 g/100 plantlings
Mass, wet, sprout, + % to control [6]: 44%
Germination rate % 4th day ([3]; 1·10^−7% solution): 54.0%
Germination rate % 8th day ([3]; 1·10^−7% solution): 82.0%
Plant height ([3]; 1·10^−7% solution): 14.8 cm
Germination rate % 4th day ([3]; 1·10^−9% solution): 52.0%
Germination rate % 8th day ([3]; 1·10^−9% solution): 81.0%
Plant height ([3]; 1·10^−9% solution): 14.5 cm
Length, root [7]: 10.3 cm
Length, root, + % to control [7]: 18%
Length, sprout [7]: 7.3 cm
Length, sprout, + % to control [7]: 18%
Mass, dry, root [7]: 0.72 g/100 plantlings
Mass, dry, root, + % to control [7]: 16%
Mass, dry, sprout [7]: 0.59 g/100 plantlings
Mass, dry, sprout, + % to control [7]: 16%
Mass, wet, root [7]: 6.02 g/100 plantlings
Mass, wet, root, + % to control [7]: 66%
Mass, wet, sprout [7]: 5.27 g/100 plantlings
Mass, wet, sprout, + % to control [7]: 33%
Germination energy, % (rice (Diamant variety) [8]; [12]): 89.5%
Germination rate, % (rice (Diamant variety) [8]; [12]): 96.3%
Germination energy (rice (Diamant variety) [8]; [13]): 89.5%
Germination rate (rice (Diamant variety) [8]; [13]): 96.3%
Germination energy [9]: 90.7%
Germination rate [9]: 97.7%
Germination energy [10]: 95.0%
Germination rate [10]: 98.3%
